Patent US12612395B2, “Rocaglate derivatives and uses thereof” (TRUSTEES OF BOSTON UNIVERSITY, priority 2023, dated 2026)
“Also recorded” adds a separate entry of the source. Where two headings read alike, the source gives them in different places.

Columns and labels:
[1] = biological target: eIF4A1:FAM-labeled poly r(AG)8 (Homo sapiens, UniProt P60842); test: Fluorescence polarization (FP) RNA clamping assay, eIF4A1; type: binding; settings: compound 10 μM, 1 mM ATP
Excerpt: Given these observations, the inventors next sought to interrogate the effects of compound (−)-20 in secondary assays for both eIF4A and DDX3 engagement. […] While inherent differences between the FP assay conditions (e.g. probe affinity, protein mobility in FP buffer) preclude direct comparison of absolute AmP values across the two different proteins, the inventors noted that relative anti-CSC potencies for these compounds ((−)-7>(−)-5≈(−)-20) were similar to their relative degrees of clamping for DDX3X and eIF4A1. To follow up on these findings, the inventors performed in vitro translation experiments using a bicistronic mRNA reporter construct FF-HCV-Ren, where translation of the firefly luciferase (FF) cistron is cap-dependent, while translation of the Renilla luciferase (HCV-Ren) cistron is driven off an HCV-IRES, rendering translation of this cistron cap-independent.
Fluorescence Polarization (FP) Assays: Recombinant DDX3X or eIF4A1 (1.5 μM) were incubated with 10 nM FAM-labelled RNA probe and test compounds for 10 min in FP buffer (14.4 mM HEPES-KOH (pH 8), 108 mM NaCl, 1 mM MgCl2, 14.4% glycerol, 0.1% DMSO, 2 mM DTT, 1 mM ATP) at room temperature in black, low-volume 384 well plates (Corning 3820). FP readings were performed using a Pherastar FS microplate reader (BMG Labtech). Compounds were tested at a final concentration of 10 μM.^S9 For ADP+Pi conditions, ATP was substituted with 1 mM ADP and 1 mM Na2HPO4. To assess potency of complex formation, proteins were titrated in the presence of 10 nM probe, 50 μM compounds and 1 mM ATP. Experiments were run in three replicates, with each replicate employing the same master mix of protein, probe and buffer split across the four test conditions (DMSO+three test compounds). […] Data was analyzed using GraphPad Prism 8.4.0, with a “[Agonist] vs. normalized response” nonlinear regression model used to determine the EC50 for stimulation of helicase-RNA probe binding in the presence of test compound.

GBM0308 CSCs = test: Dose-response killing of GBM CSCs (PI/Hoechst, Celigo cytometer); type: cell-based; settings: for CSCs Max. observed efficacy (% dead cells): up to 10 μM
Excerpt: (§1) The inventors first evaluated a cohort of seven rocaglate translation inhibitors (1, 3-7, and 9, FIG. 1A and Table 1, compounds 2 and 8 were not tested due to unavailability). To assay for compounds that selectively affect GBM CSCs, the inventors employed the patient-derived tumor-initiating cell (TIC) cell line […] that forms neurospheres (consisting exclusively of tumor-initiating cells or CSCs) when cultured in neurobasal (NBE) medium. Upon exposure to serum and growth factor withdrawal, however, the cell line differentiates, acquires a flattened morphology, and forms a non-CSC population.^20 Thus, compounds can be tested in parallel to assess their effect on GBM CSCs vs. GBM non-CSCs as separate populations with a clean and robust response. This approach has been previously used to perform RNAi-based genetic screens to identify modulators of CSCs.^20 In this study, GBM0308 cells, cultured in stem cell conditions to form CSCs or in medium containing serum to induce differentiation into a non-CSC population, were treated in parallel with compounds at varying doses. Three days post-treatment, propidium iodide (PI) and Hoechst staining were performed and quantified using a Celigo image cytometer. Hoechst dye stained all […] nucleated cells, while PI exclusively stained dead cells. Cell viability and the percentage of cell death were then determined.
(§2) Cell Culture: Glioblastoma stem cell lines GBM0308, BT145, and BT112 were cultured in neurobasal (NBE medium) containing N-2 and B-27 supplements, EGF, bFGF, L-glutamine, and Penicillin-Streptomycin), as described previously.^19 Adherent GBM cells were cultured in serum-containing DMEM media (Invitrogen) supplemented with 10% fetal bovine serum (Corning Cellgro™). Cells were incubated at 37° C. and 5% CO2 to allow neurosphere formation. For seeding and subculturing, the neurospheres were gently trypsinized with 0.025% trypsin to form a single-cell suspension.
(§3) Dose-Response Testing in GBM Cells: Briefly, on day 1, cells were seeded in triplicate. For CSCs, 1500 cells/well were plated in a low attachment 96-well plate with NBE media and incubated for 3 days at 37° C. and 5% CO2 to allow the formation of neurospheres. For non-CSCs, 3000 cells/well were plated in a 96-well plate with DMEM media supplemented with 10% FBS. Similarly, the assay plates were also incubated for the same duration. Compound treatments started on day 4. Each compound was resuspended in DMSO and then diluted to different concentrations in media to a final concentration of DMSO less than 1%. The compounds were added at concentrations of 10, 3.3, 1.11, 0.37, 0.12, 0.041, 0.013, and 0.004 µM, respectively. DMSO-treated cells served as a control. After 72 h incubation with the compounds, fluorescent stains, propidium iodide, and Hoechst 33342 (Life Technologies, Carlsbad, CA), were used to stain the GBM cells to determine cell viability. A staining solution in 1×PBS was prepared by mixing PI and Hoechst 33342 to working concentrations of 2.5 μM and 20 μM, respectively. 20 μL of this staining solution was added per well, and plates were incubated at 37° C. and 5% CO2 for 60 min. After incubation, plates were read by Celigo imaging cytometer using an inbuilt Celigo application; Cell Viability (Dead+Total). For the viability measurement, the total number of neurospheres/cells and dead neurospheres/cells in each well were counted by the cytometer. The percentage of PI+ cells was normalized to DMSO and plotted against the drug concentration to calculate the EC50 with a four-parameter, variable-slope dose-response curve with an upper constraint of <100% dead cells and a lower constraint of =0% dead cells (GraphPad Prism v.10.0.0). For all dose response experiments, the experimental maximal efficacy (maximum observed % cell death) is reported. Relative EC50 values are reported for all compounds killing >50% of cells.

GBM0308 non-CSCs = test: Dose-response killing of GBM non-CSCs (PI/Hoechst, Celigo cytometer); type: cell-based; settings: GBM0308 non-CSCs; for Non-CSCs Max. observed efficacy (% dead cells): Table 1, up to 10 μM
Excerpt: as §1, §2, §3

Sequence of eIF4A1:FAM-labeled poly r(AG)8 (P60842 whole entry, species assumed): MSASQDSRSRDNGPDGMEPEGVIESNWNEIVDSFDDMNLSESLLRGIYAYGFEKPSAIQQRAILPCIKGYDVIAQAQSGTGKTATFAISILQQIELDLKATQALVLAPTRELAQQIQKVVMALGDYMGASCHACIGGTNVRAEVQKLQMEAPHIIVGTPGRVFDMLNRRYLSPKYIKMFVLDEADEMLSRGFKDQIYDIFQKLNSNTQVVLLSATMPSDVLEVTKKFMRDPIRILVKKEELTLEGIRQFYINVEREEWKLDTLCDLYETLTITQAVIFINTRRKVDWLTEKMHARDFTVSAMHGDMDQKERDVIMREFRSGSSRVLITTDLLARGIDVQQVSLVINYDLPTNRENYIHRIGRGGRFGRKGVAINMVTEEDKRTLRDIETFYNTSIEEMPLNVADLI

SMILES: CONC(=O)[C@H]1[C@@H](O)[C@@]2(O)c3c(OC)cc(OC)cc3O[C@@]2(c2ccc(Br)cc2)[C@@H]1c1ccccc1 [(−)-7, SDS-1-021]
- stimulation of eIF4A1 binding to RNA (change in polarization), in words [1]: strongly stimulated; also recorded: strongest clamping
- CSCs Max. observed efficacy (% dead cells) (GBM0308 CSCs; Table 1, GBM0308 CSCs, 72 h): 92%
- EC50 (GBM0308 CSCs; Table 1, GBM0308 CSCs, 72 h treatment, relative EC50, given for compounds causing at least 50% cell death, read-out: CSCs EC50): 7 nM
- Non-CSCs Max. observed efficacy (% dead cells) (GBM0308 non-CSCs; 72 h): 31%

SMILES: COc1cc(OC)c2c(c1)O[C@@]1(c3ccc(Br)cc3)[C@H](c3ccccc3)[C@@H](C(=O)NS(=O)(=O)N(C)C)[C@@H](O)[C@@]21O [(−)-20, (1R,2R,3S,3aR,8bS)-3a-(4-bromophenyl)-N—(N,N-dimethylsulfamoyl)-1,8b-dihydroxy-6,8-dimethoxy-3-phenyl-2,3,3a,8b-tetrahydro-1H-cyclopenta[b]benzofuran-2-carboxamide]
- stimulation of eIF4A1 binding to RNA (change in polarization), in words [1]: strongly stimulated
- fold by which potency of CSC death is higher than effects on cap-dependent translation (GBM0308 CSCs; CSC EC50 vs translation EC50): ~20 fold
- EC50 (GBM0308 CSCs; Homo sapiens, 72 h, Table 2, GBM0308 CSCs, 72 h treatment, relative EC50, read-out: CSCs EC50): 45 nM
- Emax (GBM0308 CSCs; Homo sapiens, 72 h, read-out: CSCs Max. observed efficacy (% dead cells), Table 2, GBM0308 CSCs, 72 h, highest tested concentration 10 μM): 93%
- cytotoxic activity against non-CSCs, in words (GBM0308 non-CSCs): limited detectable effects
- Emax (GBM0308 non-CSCs; Homo sapiens, Table 2, 72 h, highest tested concentration 10 μM, read-out: Non-CSCs Max. observed efficacy (% dead cells)): 26%

SMILES: CONC(=O)[C@H]1[C@@H](O)[C@@]2(O)c3c(OC)cc(OC)cc3O[C@@]2(c2ccc(OC)cc2)[C@@H]1c1ccccc1 [(−)-5, CR-1-31b, reference compound]
- stimulation of eIF4A1 binding to RNA (change in polarization), in words [1]: strongly stimulated
- EC50 (GBM0308 CSCs; GBM0308 CSCs, read-out: CSC EC50): 36 nM
- CSCs Max. observed efficacy (% dead cells) (GBM0308 CSCs; Table 1, GBM0308 CSCs, 72 h): 91%
- Non-CSCs Max. observed efficacy (% dead cells) (GBM0308 non-CSCs; 72 h): 22%
